Converted amounts (≈) assume the structure as drawn. Some results are limits rather than exact numbers.

In general, MIC refers to the lowest concentration that inhibits growth of the organism. One may read the IC50 as the concentration needed to halve the response being measured. As usually defined, the solubility is the dissolved amount per volume that the medium holds. In general, Papp refers to a coefficient for how fast a substance crosses the barrier.

Series [1] concerns M. tb H37Rv. To be noted: secondary-linked 1 vs tertiary-linked 2; cited from earlier work.
Series [2] concerns M. tb H37Rv. The series can be described thus: M. tb MIC determination by microbroth dilution. Format: cell-based. To be noted: Mycobacterium tuberculosis, 168 h, read-out: M. tb MIC. For orientation: In broth dilution the organism is exposed to a series of concentrations in liquid medium.
The next series deals with T1, recombinant human sEH (Homo sapiens, UniProt P34913).
T1 sequence (P34913 1-555): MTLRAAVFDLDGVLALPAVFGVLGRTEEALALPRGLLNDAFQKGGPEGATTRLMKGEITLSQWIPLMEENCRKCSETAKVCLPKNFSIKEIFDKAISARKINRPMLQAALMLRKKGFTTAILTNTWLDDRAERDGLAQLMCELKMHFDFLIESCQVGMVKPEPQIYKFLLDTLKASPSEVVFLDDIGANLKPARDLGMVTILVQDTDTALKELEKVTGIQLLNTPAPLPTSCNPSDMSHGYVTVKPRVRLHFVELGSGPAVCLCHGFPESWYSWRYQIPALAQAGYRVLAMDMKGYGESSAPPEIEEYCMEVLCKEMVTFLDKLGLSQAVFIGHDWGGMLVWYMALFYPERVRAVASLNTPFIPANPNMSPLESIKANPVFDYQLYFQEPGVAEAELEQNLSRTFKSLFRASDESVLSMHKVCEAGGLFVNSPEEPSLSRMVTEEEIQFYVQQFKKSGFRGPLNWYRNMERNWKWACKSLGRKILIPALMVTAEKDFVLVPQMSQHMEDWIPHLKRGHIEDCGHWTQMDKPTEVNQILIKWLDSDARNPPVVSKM
The series can be described thus: Human soluble epoxide hydrolase assay. In kind it is biochemical.

The nature of the next series: physchem. To be noted: pH 7.4.
The next series is described as follows: in vitro. To be noted: monkey; for IC50 at 72 h: Cytotoxicity IC50.
Series [3] in a line: Cytotoxicity determination. To be noted: monkey, Cytotoxicity IC50, VERO cell line, MTT.
Series [4] in a line: Permeability determination. To be noted: PAMPA, pH 7.4. (The PAMPA barrier holds no transporters, so it reflects passive diffusion.)

On to `O=C(Nc1ccc(F)c(F)c1F)NC1C2CC3CC(C2)CC1C3` (stereo not drawn) [Compound 1], for which, in the series with M. tb H37Rv [1], the “Fold more potent than 2 (anti-TB activity)” value is listed as 40 fold.
As for `Nc1ccc(S(=O)(=O)c2ccc(NC(=O)NC34CC5CC(CC(C5)C3)C4)cc2)cc1` [Compound 13, 1-(1-adamantyl)-3-(4-((4-aminophenyl)sulfonyl)phenyl)urea], the MIC in the series on M. tb H37Rv [2] is 6.25 µg/mL (≈ 14.7 µM). At recombinant human sEH, the IC50 is 0.7 nM. In the series “physchem”, this molecule yielded a solubility at 18 h of 0.9 ± 0.1 µg/mL (≈ 2.11 µM). Also, in the series “in vitro”, the selectivity ratio at 72 h is 23 and the concentration for half-maximal inhibition (IC50) at 72 h was above 100 µg/mL.
In turn, `Cc1cc(NC(=O)NC23CC4CC(CC(C4)C2)C3)no1` [Compound 23, 1-(1-adamantyl)-3-(5-methylisoxazol-3-yl)urea] returned a solubility at 18 h in the series “physchem” of around 25 µg/mL (≈ 90.8 µM).
`Cc1nnc(NC(=O)NC23CC4CC(CC(C4)C2)C3)o1` [Compound 36, 1-(1-adamantyl)-3-(5-methyl-1,3,4-oxadiazol-2-yl)urea] had a solubility at 18 h in the series “physchem” of around 10 µg/mL (≈ 36.2 µM).
Take `CC(C)c1nnc(NC(=O)NC23CC4CC(CC(C4)C2)C3)o1` [Compound 37, 1-(1-adamantyl)-3-(5-isopropyl-1,3,4-oxadiazol-2-yl)urea]: the solubility at 18 h in “physchem” was around 10 µg/mL (≈ 32.9 µM).
With `Cc1cc(NC(=O)NC2C3CC4CC(C3)CC2C4)no1` (stereo not drawn) [Compound 47, 1-(2-adamantyl)-3-(5-methylisoxazol-3-yl)urea], in the series “physchem”, the solubility at 18 h is around 25 µg/mL (≈ 90.8 µM). Also, in the series “in vitro”, the selectivity ratio at 72 h was above 8 and the IC50 at 72 h is above 48 µg/mL.
Molecule `O=C(Nc1nnc(C2CC2)o1)NC1C2CC3CC(C2)CC1C3` (stereo not drawn) [Compound 50, 1-(2-adamantyl)-3-(5-cyclopropyl-1,3,4-oxadiazol-2-yl)urea] registered an IC50 at 72 h in series [3] above 100 µg/mL.
For `CCn1nc(NC(=O)NC2C3CC4CC(C3)CC2C4)cc1C` (stereo not drawn) [Compound 52, 1-(2-adamantyl)-3-(1-ethyl-5-methylpyrazol-3-yl)urea], the IC50 at 72 h in series [3] was above 100 µg/mL.
For `CCCSc1ccc2nc(NC(=O)OC)[nH]c2c1` [albendazole], the Papp at 0.5 hr, 50 µM in series [4] was around 441 ×10⁻⁶ cm/s.

Values taken from article PMC3780361 (Bioorganic & medicinal chemistry, 2013).
